Values of other authors, collected in patent US12569575B2, “Radiopaque particle compositions and uses thereof” (GUSTAVE ROUSSY TRANSFERT, priority 2021, dated 2026).
Converted amounts (≈) assume the structure as drawn. Where a name gives a salt, the structure may show the parent alone. Read-outs that look alike come from different tables or passages of the source.

Details: for Solubility in DMSO: solvent DMSO

Solubility in DMSO | Structure (SMILES) | also measured
77 mg/mL (≈ 199 mM) | CNC(=O)c1ccccc1Sc1ccc2c(/C=C/c3ccccn3)n[nH]c2c1 [Axitinib] | –
100 mg/mL (≈ 189 mM) | COc1cc(Nc2c(C#N)cnc3cc(OCCCN4CCN(C)CC4)c(OC)cc23)c(Cl)cc1Cl [Bosutinib] | –
18 mg/mL | COc1cc2nccc(Oc3ccc(NC(=O)C4(C(=O)Nc5ccc(F)cc5)CC4)cc3)c2cc1OC [Cabozantinib malate] | –
>5.6 mg/mL | C=CC(=O)Nc1cc2c(Nc3ccc(F)c(Cl)c3)ncnc2cc1OCCCN1CCOCC1 [Canertinib diHCl] | Solubility in Water (solvent water): 10 mg/mL
98 mg/mL (≈ 201 mM) | Cc1nc(Nc2ncc(C(=O)Nc3c(C)cccc3Cl)s2)cc(N2CCN(CCO)CC2)n1 [Dasatinib] | –
40 mg/mL (≈ 102 mM) | CN1CCN(c2ccc3nc(-c4c(N)c5c(F)cccc5[nH]c4=O)[nH]c3c2)CC1 [Dovitinib] | –
100 mg/mL | COc1cccc2c1C(=O)c1c(O)c3c(c(O)c1C2=O)C[C@@](O)(C(=O)CO)C[C@@H]3O[C@H]1C[C@H](N)[C@H](O)[C@H](C)O1 [Doxorubicin HCl] | –
10 mg/mL | COc1cccc2c1C(=O)c1c(O)c3c(c(O)c1C2=O)C[C@@](O)(C(=O)CO)C[C@@H]3O[C@H]1C[C@H](N)[C@@H](O)[C@H](C)O1 [Epirubicin HCl] | Solubility in Water (solvent water): 10 mg/mL
20 mg/mL | C#Cc1cccc(Nc2ncnc3cc(OCCOC)c(OCCOC)cc23)c1 [Erlotinib HCl] | –
20 mg/mL (≈ 44.8 mM) | COc1cc2ncnc(Nc3ccc(F)c(Cl)c3)c2cc1OCCCN1CCOCC1 [Gefitinib] | –
5 mg/mL (≈ 19 mM) | Nc1ccn([C@@H]2O[C@H](CO)[C@@H](O)C2(F)F)c(=O)n1 [Gemcitabine] | Solubility in Water (solvent water): 25 mg/mL (≈ 95 mM)
9 mg/mL | COc1cc2nccc(Oc3ccc(NC(=O)NC4CC4)c(Cl)c3)c2cc1C(N)=O [Levatinib mesylate] | –
>95 mg/mL | Cc1ccc(NC(=O)c2ccc(CN3CCN(C)CC3)cc2)cc1Nc1nc(-c2cccnc2)cs1 [Masitinib] | Solubility in Water (solvent water): <1.2 mg/mL
50 mg/mL (≈ 94.4 mM) | Cc1cn(-c2cc(NC(=O)c3ccc(C)c(Nc4nccc(-c5cccnc5)n4)c3)cc(C(F)(F)F)c2)cn1 [Nilotinib] | –
95 mg/mL (≈ 217 mM) | Cc1ccc(Nc2nccc(N(C)c3ccc4c(C)n(C)nc4c3)n2)cc1S(N)(=O)=O [Pazopanib] | –
97 mg/mL (≈ 201 mM) | CNC(=O)c1cc(Oc2ccc(NC(=O)Nc3ccc(Cl)c(C(F)(F)F)c3)c(F)c2)ccn1 [Regorafenib] | –
92 mg/mL (≈ 198 mM) | CNC(=O)c1cc(Oc2ccc(NC(=O)Nc3ccc(Cl)c(C(F)(F)F)c3)cc2)ccn1 [Sorafenib] | –
100 mg/mL (≈ 251 mM) | CCN(CC)CCNC(=O)c1c(C)[nH]c(/C=C2\C(=O)Nc3ccc(F)cc32)c1C [Sunitinib] | Solubility in Water (in citrate buffer): 2 mg/mL (≈ 5.02 mM)
– | COc1cc2nc(N3CCN(C(=O)C4CCCO4)CC3)nc(N)c2cc1OC (centres unmarked) [Terazosin] | Solubility in Water (solvent water): 20 mg/mL (≈ 51.6 mM)
30 mg/mL (≈ 63.1 mM) | COc1cc2c(Nc3ccc(Br)cc3F)ncnc2cc1OCC1CCN(C)CC1 [Vandetanib] | Solubility in Water (in pH 6.5): 5 mg/mL (≈ 10.5 mM)
85 mg/mL | Clc1ccc(Nc2nnc(Cc3ccncc3)c3ccccc23)cc1 [Vatalanib diHCl] | Solubility in Water (solvent water): 10 mg/mL

Structure (SMILES) | Solubility in DMSO | also measured
CC(=O)[C@]1(O)Cc2c(O)c3c(c(O)c2[C@@H](O[C@H]2C[C@H](N)[C@H](O)[C@H](C)O2)C1)C(=O)c1ccccc1C3=O [Idarubicin HCl] | 10 mg/mL | Solubility in Water (solvent water): 1 mg/mL
CS(=O)(=O)CCNCc1ccc(-c2ccc3ncnc(Nc4ccc(OCc5cccc(F)c5)c(Cl)c4)c3c2)o1.Cc1ccc(S(=O)(=O)O)cc1.Cc1ccc(S(=O)(=O)O)cc1 [Lapatinib toluene-sulfonate] | 200 mg/mL | –
C[C@]12O[C@H](C[C@]1(O)CO)n1c3ccccc3c3c4c(c5c6ccccc6n2c5c31)CNC4=O [Lestaurtinib] | 44 mg/mL (≈ 100 mM) | –
